Test results as given in patent US6251950A, “Aliphatic propargylamines as cellular rescue agents” (University of Saskatchewan, priority 1998, dated 2001).

Legend:
[1] = rodents and humans; cited from earlier work
[2] = test system: Parkinson's disease; conditions: cited from earlier work
[3] = test system: PC12 cells; conditions: cited from earlier work
[4] = test system: Alzheimer's disease; conditions: some patients; cited from earlier work
[5] = test system: catecholaminergic neuroblastoma SH-SY5Y cells; conditions: cited from earlier work
[6] = test system: damaged neurons; conditions: some models; cited from earlier work
[7] = test system: Tourette's syndrome; conditions: Tourette's syndrome patients; cited from earlier work
[8] = test system: SOD1 mRNA, PC12 cells; conditions: Li, et al., 1995; cited from earlier work
[9] = test system: cerebellar granule cells (CGC); assay: in vitro; type: cell-based, Wistar rat; conditions: 10^-7 M (FIG. 1c)
Excerpt: Cultures of cerebellar granule cells (CGC) can be induced into apoptosis by the addition of a high concentration of cytosine arabinoside (Ara C) (Dessi et al., 1995) and it has been shown that this is a p53 dependent apoptosis (Enokido et al, 1996). We have measured the antiapoptotic effect of N-(2-heptyl)propargylamine (2HPA) using this system and compared the results to those obtained with previously known aliphatic methyl propargylamines and deprenyl.
Cultures of CGC were obtained from 6-8 day old Wistar rat pups. Cultures were grown on glass in 35 mm petri dishes for 3 days and then used for experiments. 20 μl aliquots of drug solutions (Ara C, anti-apoptotic drugs, drug vehicles) were added to the medium of the cultures. 24 Hours later the cultures were fixed with FAM, and stained with bis-benzamide. Normal and apoptotic nuclei were counted to a total of 90-120 cells per culture. […] Concentrations in excess of 150 μM caused detachment of the cultures.
Compounds were added at the following concentrations: Ara C, 100 μM,

Structure (SMILES): C#CCN(C)[C@H](C)Cc1ccccc1 [R-deprenyl]
- life span and sexual activity [1]: prolong life span and sexual activity
- effect in Parkinson's disease ([2]; adjuvant to L-dopa): effective adjuvant to L-dopa
- onset of symptoms in Parkinson's disease ([2]; early otherwise untreated cases, administered alone): delay onset of symptoms
- prevention of apoptosis in PC12 cells [3]: can prevent apoptosis
- clinical condition of Alzheimer patients [4]: improved the clinical condition of some Alzheimer patients
- cytotoxicity of dopamine towards SH-SY5Y cells [5]: enhance the cytotoxicity of dopamine
- concentrations required to prevent apoptosis versus minimum necessary for MAO-B inhibition [6]: at least an order of magnitude lower
- symptoms of attention deficit disorder [7]: improved
- SOD1 mRNA induction (previous findings) [8]: can induce SOD1 mRNA in a dose dependent manner
- blocking of Ara C induced apoptosis [9]: completely blocked
